The target of one test is T1, DNA topoisomerase II (Homo sapiens) (UniProt P11388+Q02880). Description: (§1) Compound was tested for percentage inhibition against DNA topoisomerase II. Format: protein assay. Also noted: concentration or dose not given beside the values. The note with it: concentration not given here.
Usually inhibition stands for the change of the read-out against control, counted positive when it falls. In turn, `COc1cc([C@@H]2c3cc4c(cc3[C@@H](O)[C@H]3COC(=O)[C@H]23)OCO4)cc(OC)c1O` displayed an inhibition of 60%.
On the same count and under the same terms, under `CCO[C@@H]1c2cc3c(cc2[C@@H](c2cc(OC)c(O)c(OC)c2)[C@H]2C(=O)OCC12)OCO3` (some centres undefined) stands 89%.
Still for that read-out and setting: the result for `COc1cc([C@@H]2c3cc4c(c(O)c3C[C@H]3COC(=O)[C@@H]32)OCO4)cc(OC)c1O` reads 20%; that for `COc1cc([C@@H]2c3cc4c(cc3[C@@H](O[C@@H]3O[C@@H]5CO[C@@H](C)O[C@H]5[C@H](O)[C@H]3O)[C@H]3COC(=O)[C@H]23)OCO4)cc(OC)c1O`, 85%.
On the same count and under the same terms, under `COc1cc([C@@H]2c3cc4c(cc3[C@H](O)[C@H]3COC(=O)[C@H]23)OCO4)cc(OC)c1OC` stands 30%.

A further test concerns the target T1, DNA topoisomerase II (Homo sapiens). Described as §1. Format: protein assay. The note with it: concentration not given here.
`COc1cc([C@@H]2c3cc4c(cc3[C@@H](O)C3COC(=O)[C@@H]32)OCO4)cc(O)c1O` (some centres undefined) gave an inhibition of 75%.
The same measure, in the same setting: the result for `COc1cc([C@@H]2c3cc(O)c(O)c(O)c3CC3COC(=O)[C@@H]32)cc(OC)c1O` (some centres undefined) reads 45%; that for `COc1cc([C@@H]2c3cc4c(c(OC(C)=O)c3CC3COC(=O)[C@@H]32)OCO4)cc(OC)c1OC(C)=O` (some centres undefined), 10%.
Same read-out and setting: the result for `COc1cc([C@@H]2c3cc(OC(C)=O)c(OC(C)=O)c(OC(C)=O)c3CC3COC(=O)[C@@H]32)cc(OC)c1OC(C)=O` (some centres undefined) reads 25%.

These data come from ChEMBL document CHEMBL1123354, “Antitumor agents. 78. Inhibition of human DNA topoisomerase II by podophyllotoxin and alpha-peltatin analogues” (J Med Chem, 1986).
